Results from patent US6551793B1, “Carotenoid-associated proteins useful for high carotenoid accumulation and production in plants and other organisms” (Yissum Research Development Company of the Hebrew …, priority 1996, dated 2003).

Key:
Type in all cases: cell-based, Cucumis sativus
CHRC protein = assay: In vitro flower bud culture, Western blot of CHRC protein in corollas
Method: (§1) In FIG. 15A, antibodies against CHRD or CHRC were used in a western blot analysis of CHRD and CHRC levels, respectively, in corollas cultured for 72 hours in the presence (E) or absence (C) of ethylene (50 μg of total protein per lane). In FIG. 15B, flowers were enclosed in aluminum foil in the greenhouse for 3 days and CHRD levels in etiolated (D) and control, nonetiolated (L) corollas were analyzed by western blotting (50 μg of total protein per lane).
(§2) This example describes plant material and conditions for in vitro flower bud culture. C. sativus L. plants (cultivar Shimahon, obtained from Zeraim Gadera, Israel) were grown under standard greenhouse conditions. In vitro culture of flower buds was performed at 23° C., under constant light from cool white fluorescent lamps with a photosynthetic photon flux density of 80 μmol/m^2 g, as described previously. Briefly, buds at developmental stage 1 (˜8 mm in length, 120 hours before anthesis) were collected and rinsed several times with sterile water. Buds were then placed for 24 hours on a perforated Parafilm (American National Can, Greenwich, Conn.) covering a Petri dish filled with double-distilled sterile water, such that only the bases of the buds were in contact with the liquid. Following equilibration, buds were transferred to a fresh Petri dish (zero time for the experiments) and treated with GA3, ABA, paclobutrazol, or CHX, as specified in the figure legends.

CHRD = assay: In vitro flower bud culture, Western blot of CHRD in corollas
Method: CHRD levels in corollas were analyzed by western blotting (10 μg of total protein per lane) using antibodies against CHRD and horseradish peroxidase anti-rabbit IgG in an enhanced chemiluminescence detection system. FIG. 14B is a Western blot analysis of corollas (50 μg of total protein per lane) cultured for the indicated periods with (+) or without (−) GA3. The blot was decorated with antibodies against CHRD and alkaline phosphatase anti-rabbit 1 gG.
as §1, §2
CHRD protein was isolated from Cucumis sativus as a minor component, immunologically characterised and analyzed in terms of the regulation of its expression by developmental signals using methods and conditions described above for CHRC. […] Carotenoids are known to accumulate in dark.

CHRC mRNA = assay: In vitro flower bud culture, Northern blot of CHRC mRNA in corollas
Method: (§3) Young flower buds were cultured in vitro in the presence (GA) or the absence (C) of 100 μM GA3 for up to 48 hours. Northern and Western blot analyses of corollas, cultured for the indicated periods of time, were performed. The Northern blots (25 μg total RNA/lane) were hybridized with ^32P-labeled DNA inserts from CHRC (CHRC), […] (Psy), and 18s rDNA (18S). Western blot analysis (bottom panel of A) was performed using antibodies against CHRC protein (25 μg total protein/lane). The results of the CHRC Northern blot analyses are also shown graphically relative to the mRNA level of the untreated corollas at zero time (0) (arbitrary value of 1).
(§4) Flower buds were cultured in the presence of 100 μm GA3 (GA), 100 μg/ml paclobutrazol following 2 hours of pretreatment with 100 μg/ml paclobutrazol (P), 100 μg/ml paclobutrazol +100 μm GA3 following 2 hours of pretreatment with 100 μg/ml paclobutrazol (P/GA), 100 μM ABA (ABA), or no phytohormones (C). Total RNA was extracted from corollas after 2 hours of treatment. Northern blot analyses were performed and probed as described in the legend to FIG. 7.
(§5) Total RNA and protein were extracted from cucumber corollas of flower buds cultured for 6 hours in the presence of 100 μM GA3 (GA), 50 μM CHX following 2 hours of pretreatment with 50 μM CHX (CHX/GA), or no phytohormones (C). Northern (CHRC, Psy, and 18S) and Western (bottom panel) blot analyses were performed as described above.
In FIG. 10, flower buds were cultured for 2 hours without (0) or with various concentrations of GA3. Total RNA was isolated from corollas, and a Northern blot was probed as above. The results of the CHRC Northern blot analyses are also shown graphically relative to the mRNA level of control corollas cultured without GA3 (arbitrary value of 1).
as §2
This example describes conditions used for RNA isolation and Northern blot analysis. Total RNA from corollas of cucumber flower buds was isolated as described previously. RNA (15 and 25 μg) was fractionated through a 1.2% formaldehyde gel and transferred to a Hybond-N^− filter (Amersham Corp.). A random priming kit (Boehringer Mannheim) was used to radioactively labeled DNA probes. The blots were hybridized with ^32P-labeled cucumber CHRC cDNA (Vishnevetsky, et al., Plant Journal, 10: 1111-1118 (1996)) and reprobed with melon phytoene synthase (PSY) cDNA (MEL5), provided by D. Grierson of the Nottingham University, UK. The hybridization for analysis of CHRC expression was carried out in 0.263 M Na2HPO4, 7% SDS, […], 1% BSA for 16 hours at 60° C., and the washes were performed in 2×SSC/0.1% SDS at 50° C. followed by 2×SSC/0.1% SDS at 55° C., for 20 minutes each. Hybridization with the MEL5 probe was carried out at 55° C. using the same procedure. Following the hybridization, the blots were washed in 5×SSC/0.1% SDS at 45° C. for 20 minutes followed by 5×SSC/0.1% SDS at 50° C. and 2×SSC/0.1% SDS at 50° C. for 20 minutes each. […]

Psy mRNA = assay: In vitro flower bud culture, Northern blot of Psy mRNA in corollas
Method: as §3, §4, §5
as §2, with “Following equilibration, buds were transferred to a fresh Petri dish (zero time for the experiments) and treated with GA3, ABA, paclobutrazol, or CHX, as specified in the figure legends.” left out
This example describes conditions used for RNA isolation and Northern blot analysis. […] Autoradiograms were quantified by scanning suitably exposed films in a densitometer (Molecular Dynamics, Sunnyvale, Calif.). The amount of RNA loaded onto the gels was standardized by optical measurement, by quantitation of the ethidium bromide fluorescence of cytoplasmic rRNA. and by the level of hybridization with a DNA fragment coding for cytoplasmic 18S RNA.

[1] = system: GUS reporter gene expression; assay: Transient expression of reporter gene GUS under CHRC promoter versus 35S CaMV promoter
Description: FIGS. 1A and 1B show comparative photographs of cucumber flowers petals showing transient expression of the reporter gene GUS using CHRC promoter (FIG. 1A) or known 35S CaMV promoter (FIG. 1B).
The promoter containing CHRC upstream region was about 70% as efficient as the 35S CaMV promoter in cucumber petals and about 60% as efficient in leaves, fruits and stems. The CHRC promoter's efficiency in another representative of the cucurbit family, namely in melon, was similar to the efficiency found in cucumber.
In cucumber-petals, the CHRC upstream region was about 70% as efficient as the 35S CaMV promoter. In leaves, fruits and stems, the CHRC promoter was about 60% as efficient as 35S CaMV. Promoter's efficiency in melon was similar to that observed in cucumber.

[2] = ethylene, corollas cultured for 72 hours
[3] = 50 μM CHX with 100 μM GA3, 6 hours
[4] = dose response 1×10^−8 to 1×10^−4 M GA3, 2 hours

C=C [ethylene]
CHRC level in treated corollas versus controls (CHRC protein; [2]): lower than that in controls | CHRD level per unit protein following treatment (CHRD; [2]): down-regulated

C[C@@H]1C[C@@H]([C@H](O)CC2CC(=O)NC(=O)C2)C(=O)[C@@H](C)C1 [CHX, cycloheximide]
Effect on up-regulation of CHRC mRNA by GA3 (CHRC mRNA; [3]): did not prevent | Effect of CHX alone on CHRC transcript accumulation (CHRC mRNA; CHX alone): did not affect | Effect on increase in CHRC protein levels in GA3-treated buds (CHRC protein; [3]): successfully abolished | Effect on Psy mRNA levels (Psy mRNA; 50 μM CHX, 6 hours): unaffected

CC(C)(C)[C@@H](O)[C@@H](Cc1ccc(Cl)cc1)n1cncn1 (racemic) [paclobutrazol]
Decrease in CHRC mRNA levels relative to control untreated corollas (CHRC mRNA; 100 μg/ml paclobutrazol after 2 hours of pretreatment, 2 hours of treatment): 4 fold | Effect on Psy mRNA levels (Psy mRNA; 100 μM ABA or 100 μg/ml paclobutrazol, 2 hours of treatment): Neither ABA nor paclobutrazol markedly affected | CHRD level per unit protein, down-regulation compared with control untreated corollas (CHRD; flower buds cultured for 72 hours): 4.8±0.2 times

C=C1C[C@]23C[C@@]1(O)CC[C@H]2[C@@]12C=C[C@H](O)[C@@](C)(C(=O)O1)[C@H]2[C@@H]3C(=O)O [GA3, Gibberellin A3]
CHRC mRNA level in treated versus control corollas (CHRC mRNA; 100 μM GA3, after 20 minutes of treatment): approximately twice as high | CHRC transcript accumulation with exogenous GA3 added to paclobutrazol (CHRC mRNA; 100 μg/ml paclobutrazol + 100 μm GA3 after 2 hours paclobutrazol pretreatment): up-regulated CHRC transcript accumulation to the level of GA3-treated corollas | Concentration at which CHRC was strongly up-regulated (CHRC mRNA; [4]): 10^−5−10^−4 M | Lowest concentration sufficient to markedly elevate basal CHRC mRNA levels (CHRC mRNA; [4]): 10^−7 M | Time to detectable increase in CHRC mRNA level (CHRC mRNA; response to GA3, early time points (data not shown)): 10 to 20 min | CHRC per unit of protein in treated versus control corollas (CHRC protein; 100 μM GA3, after 2 hours of treatment): approximately 2.5 times | Effect on Psy mRNA levels (Psy mRNA; GA3 treatment, first 45 hours of corolla development): not affected | CHRD level in treated versus untreated buds (CHRD; GA3, after only 2 hours): markedly higher | CHRD accumulation with GA3 in the culture medium (CHRD; GA3, in vitro bud culture, 72 hours): enhanced accumulation

B1: CHRC upstream region: sequenced upstream region of the cucumber CHRC gene with strong promoter activity, SEQ ID NO:10 (nucleic acid, listed as Cucumis sativus)
DNA: AAGCTTTACAAATTAGGGTTACTTTATTCATTTTCATCCATTCTCTTTATTGTTAAATTTTGTACATTTATTCAATAATATTATATGTTTATTACAAATTCTCACTTTCTTATTCATACCTATTCACTCAAGCCTTTACCATCTTCCTTTTCTATTTCAATACTATTTCTACTTCATTTTTCACGTTTTTAACATCTTTCTTTATTTCTTGTCCACTTCGTTTAGGGATGCCTAATGTCCCAAATTTCATCTCTCGTAGTAACACAAAACCAATGTAATGCTACTTCTCTCTACATTTTTAATACAAATAAAGTGAAACAAAATATCTATAAATAAACAAATATATATATTTTGTTAGACGCTGTCTCAACCCATCAATTAAAAAATTTTGTTATATTTCTACTTTACCTACTAAATTTGTTTCTCATATTTACCTTTTAACCCCCACAAAAAAAAATTATAAAAAAGAAAGAAAAAAGCTAAACCCTATTTAAATAGCTAACTATAAGATCTTAAAATTATCCTCATCAGTGTATAGTTTAATTGGTTATTAACTTATAACATTATATATCTATGACATATACTCTCTCCTAGCTATTTCTCACATTTTTTAACTTAAGAAAATAGTCATAACATAGTCTAAAATTCAAACATCCACATGCTCTAATTTGATTAACAAAAAGTTAGAAATATTTATTTAAATAAAAAAGACTAATAAATATATAAAATGAATGTTCATACGCAGACCCATTTAGAGATGAGTATGCTTTCACATGCTGAGATTATTTTCAAAACTAAGGTTGTAGCAATATTAAATCAATAAAATTATTATAAATAACAAAATTAACCTGCTCGTGTTTGCTGTATATGGGAGGCTACAAAATAAATTAAACTAAAGATGATTATGTTTTAGACATTTTTTCTATCTGTATTAGTTTATACATATTAATTCAGGAGCTGCACAACCCAATTCTATTTTCGTTCCTTGGTGGCTGGGTTTCTCACAAGGTTCAATAGTCAATATTAGGTTTTATTGGACTTTTAATAGTATCAAACAAATCTATGTGTGAACTTAAAAATTGTATTAAATATTTAGGGTAACCTGTTGCCGTTTTTAGAATAATGTTTCTTCTTAATACACGAAAGCGTATTGTGTATTCATTCATTTGGCGCCTCACATGCTTCGGTTGGCTCGCTTTAGTCTCTGCCTTCTTTGTATATTGTACTCCCCCTCTTCCTATGCCACGTGTTCTGAGCTTAACAAGCCACGTTGCGTGCCATTGCCAAACAAGTCATTTTAACTTCACAAGGTCCGATTTGACCTCCAAAACAACGACAAGTTTCCGAACAGTCGCGAAGATCAAGGGTATAATCGTCTTTTTGAATTCTATTTCTCTTTATTTAATAGTCCCTCTCGTGTGATAGTTTTTAAAAGATTTTTAAAACGTAGCTGCTGTTTAAGTAAATCCCAGTCCTTCAGTTTGT
Efficiency relative to the 35S CaMV promoter ([1]; cucumber leaves, fruits and stems): about 60% | Efficiency relative to the 35S CaMV promoter ([1]; cucumber petals): about 70%
